Consider 9 compounds from patent publication US20250040543A1, “Preservative Composition” (ARXADA AG, priority 2021, published 2025).

Read-outs that look alike come from different tables or passages of the source.

In one test the test system is Candida albicans. The test can be described thus: MIC and Synergy Index (Kull) of two-component compositions. It is filed as cell-based. Particulars: for MIC: Candida albicans. On the procedure: (§1) A wide range of concentrations were tested against Pseudomonas aeruginosa, Staphylococcus aureus, Escherichia coli, and Candda albicans.
(§2) The lowest concentration of each mixture or single compound which prevents an observable level of growth was determined to be the minimum inhibitory concentration (MIC) value.
(§3) Serial dilutions of each mixture or single compound were prepared. Micro-organisms were inoculated into media: Nutrient Broth (bacteria) or Malt Extract Broth (yeast). The final concentrations of micro-organisms in media was approximately 10^5-6 CFU/ml. The inoculated media was introduced to each of the serial dilutions at a 1:1 ratio, and incubated at 30±1° C. for 24-48 hours.
(§4) The MICs for each mixture was compared with the MIC of each single compound alone.
(§5) In this study the end point is measured by the MIC.

A further test has as its system Escherichia coli. The description is as above. It is filed as cell-based. On the procedure: as §1, §2, §3, §4
(§6) Synergy was determined using the Kull equation (F. C. Kull et. al., “Mixtures of Quaternary Ammonium Compounds and Long-chain Fatty Acids as Antifungal Agents”, Appl Microbiol. 1961 November; 9(6): 538-541), which calculates a Synergy Index (SI) according the following equation:
(§7) [formula] • wherein • QA=concentration of compound A in ppm, acting alone produced an end point, • Qa=concentration of compound A in ppm, in the mixture, which produced an end point, • QB=concentration of compound B in ppm, acting alone produced an end point, and • Qb=concentration of compound B in ppm, in the mixture, which produced an end point;
as §5

The subject of test [1] is Aspergillus brasiliensis ATCC 16404. The test can be described thus: Preservation efficacy test in sterile distilled water, drop plate. It is filed as cell-based. Particulars: 7 days, Butyl Levulinate 0 ppm. As to the method: (§8) In the following example, the following test organisms were used: • Pseudomonas aeruginosa ATCC 9027 • Aspergillus brasiliensis ATCC 16404 [table] Mould strain spores were harvested (sterile distilled water+0.05% polysorbate 80) and treated to remove fungal hyphae. Mould strain spores were prepared in diluent (sterile distilled water) to obtain a final concentration of 1.0×10^5 to 1.0×10^5 cfu/ml. [table] […] Each sample was inoculated at t=0 with a known concentration of micro-organism. Each inoculated sample was then mixed until a homogenous mixture was obtained. […] The solution was left for 15 minutes. Subsequent dilutions were prepared by serial dilution of 0.1 ml into 0.9 ml of neutralising broth. Bacteria were serially diluted to 10^−4, Fungi were serially diluted to 10^−3. Each serial dilution was thoroughly mixed and 25 μl drops were aliquoted onto the surface of pre-prepared agar plates. Plates were prepared in sextupicate for each sample dilution. The agar plates were allowed to dry, then inverted and incubated under conditions appropriate for the test microorganisms. CFU/ml was calculated taking into account dilution factors. […] The lower and upper limits for drop plating were only employed on the highest and lowest dilution factor plates.

A further test concerns Staphylococcus aureus. The test can be described thus: MIC and Synergy Index (Kull) of two-component compositions. In kind it is cell-based. Particulars: for MIC: Staphylococcus aureus. On the procedure:
as §1, §2, §3, §4, §6, §7, §5

Test [2] has as its system Pseudomonas aeruginosa ATCC 9027. As to the kind of experiment: Preservation efficacy test in sterile distilled water, drop plate. In kind it is cell-based. Particulars: 7 days, Butyl Levulinate 0 ppm. On the procedure:
as §8, with “[table] Bacteria” for “[table] Mould strain spores”, “harvested” for “harvested (sterile distilled water+0.05% polysorbate 80)”, “and” for “and treated to remove fungal hyphae. Mould strain spores were”, “of 1.0×10^6” for “of 1.0×10^5”, “to 5.0×10^6” for “to 1.0×10^5”

A further test deals with Pseudomonas aeruginosa. As to the kind of experiment: MIC and Synergy Index (Kull) of two-component compositions. In kind it is cell-based. On the procedure: as §1, §2, §3, §4, §6, §7, §5
The test system of a further test is C. albicans. As to the kind of experiment: Preservation efficacy test in sterile distilled water, drop plate. In kind it is cell-based, Candida albicans. Particulars: 7 days, pH 7, Butyl Levulinate 0 ppm. As to the method:
Yeast strains were harvested and prepared in diluent (sterile distilled water) to obtain a final concentration of 1.0×10^5 to 1.0×10^6 cfu/ml.
Preservation efficacy testing started at Day 0 (t=0). Each sample was inoculated at t=0 with a known concentration of micro-organism. Each inoculated sample was then mixed until a homogenous mixture was obtained. Inoculated samples were stored in the dark at 22.5±2.5° C. throughout the test period.
At the specified contact time of 7 days (t=7), test samples were deactivated by adding a 0.1 ml aliquot of the test sample to 0.9 ml of an appropriate neutralising broth. The solution was left for 15 minutes. Subsequent dilutions were prepared by serial dilution of 0.1 ml into 0.9 ml of neutralising broth. Bacteria were serially diluted to 10^−4, Fungi were serially diluted to 10^−3.
Each serial dilution was thoroughly mixed and 25 μl drops were aliquoted onto the surface of pre-prepared agar plates. Plates were prepared in sextupicate for each sample dilution.
The agar plates were allowed to dry, then inverted and incubated under conditions appropriate for the test microorganisms.
CFU/ml was calculated taking into account dilution factors. Colonies from the incubated plates were enumerated using the lower count limit of <10 CFU/ml and the upper count limit of >330 CFU/ml.
The lower and upper limits for drop plating were only employed on the highest and lowest dilution factor plates.
The test organisms were prepared and the method was performed according to the protocol of Example 1.

The mark [3] stands for this setting: Sodium benzoate alone, or its concentration in the mixture with butyl levulinate.
The mark [4] stands for this setting: Sodium benzoate alone, or its concentration in the mixture with ethyl levulinate.
[5] abbreviates: pH 7, Sodium Benzoate 10000 ppm.
Where [6] appears, read: pH 7, Sodium Benzoate 15000 ppm.
The mark [7] stands for this setting: pH 7, Sodium Benzoate 20000 ppm.
Where [8] appears, read: pH 7, Sodium Benzoate 25000 ppm.
The mark [9] stands for this setting: pH 8, Sodium Benzoate 10000 ppm.
Setting [10] is: pH 8, Sodium Benzoate 15000 ppm.
The mark [11] stands for this setting: pH 8, Sodium Benzoate 20000 ppm.
Where [12] appears, read: pH 8, Sodium Benzoate 25000 ppm.
[13] abbreviates: Sodium Pyrithione alone, or its concentration in the mixture with ethyl levulinate.
[14] abbreviates: Sodium pyrithione alone, or its concentration in the mixture with butyl levulinate.
Setting [15] is: Lactic Acid alone, or its concentration in the mixture with ethyl levulinate, read-out: MIC (ppm) to inhibit growth: Lactic Acid.
[16] abbreviates: read-out: MIC (ppm) to inhibit growth: Potassium Sorbate.
Setting [17] is: pH 7, Potassium Sorbate 5000 ppm.
The mark [18] stands for this setting: pH 7, Potassium Sorbate 10000 ppm.
Setting [19] is: pH 7, Potassium Sorbate 15000 ppm.
[20] abbreviates: pH 7, Potassium Sorbate 20000 ppm.
[21] abbreviates: pH 7, Potassium Sorbate 25000 ppm.
Where [22] appears, read: ADBAC alone, or its concentration in the mixture with ethyl levulinate.

As to `CC(=O)C1C(=O)C=C(C)OC1=O` (stereo not shown) [DHA, dehydroacetic acid, reference compound], the MIC with Candida albicans (read-out: MIC (ppm) to inhibit growth: DHA) was 250 µg/mL; with Escherichia coli (Escherichia coli, read-out: MIC (ppm) to inhibit growth: DHA), 5000 µg/mL.
On to `O=c1[nH]sc2ccccc12` [BIT, benzisothiazolinone, reference compound], for which the “MIC (ppm) to inhibit growth: BIT” value in the test with Candida albicans (BIT alone, or its concentration in the mixture with butyl levulinate) came to 31 ppm.
`O=C([O-])c1ccccc1.[Na+]` [Sodium Benzoate, sodium benzoate, reference compound]: the “MIC (ppm) to inhibit growth: Sodium benzoate” value in the test on Candida albicans (setting [3]) is recorded as 7500 ppm; with Candida albicans (setting [4]) it was 7500 ppm; with Escherichia coli (setting [3]), 7500 ppm; in the test with Escherichia coli (setting [4]), 7500 ppm; in the test on Staphylococcus aureus (setting [3]), 15000 ppm; in the test on Staphylococcus aureus (setting [4]) it was 15000 ppm. Also, the Log reduction in test [1] (pH 7, Sodium Benzoate 5000 ppm) was 2.09; in test [1] (setting [5]), 2.14; in test [1] (setting [6]), 2.20; in test [1] (setting [7]), 2.33; in test [1] (setting [8]), 3.11; in test [1] (pH 8, Sodium Benzoate 5000 ppm) it was 0.33. Further, the Log reduction in test [1] (setting [9]) is 0.70; in test [1] (setting [10]), 0.64; in test [1] (setting [11]), 0.60; in test [1] (setting [12]) it was 0.55; in test [2] (pH 7, Sodium Benzoate 5000 ppm), 1.73; in test [2] (setting [5]), over 4.90. Further, the Log reduction in test [2] (setting [6]) was over 4.90; in test [2] (setting [7]), over 4.90; in test [2] (setting [8]), over 4.90; in test [2] (pH 8, Sodium Benzoate 5000 ppm) it was 1.54; in test [2] (setting [9]), 1.36; in test [2] (setting [10]), 1.57. The Log reduction is reported as 3.20 in test [2] (setting [11]) and over 4.57 in test [2] (setting [12]).
As to `CCCCNC(=O)OCC#CI` [IPBC, 3-Iodo-2-propynyl butylcarbamate, reference compound], the Log reduction in test [1] (pH 7, IPBC 100 ppm) stood at 1.21; in test [1] (pH 7, IPBC 250 ppm) it was 0.77; in test [1] (pH 7, IPBC 500 ppm), 0.71; in test [1] (pH 7, IPBC 750 ppm) it was 0.57; in test [1] (pH 7, IPBC 1000 ppm) it was 0.85.
On to `[Na+].[O-][n+]1ccccc1[S-]` [Sodium Pyrithione, sodium pyrithione, reference compound], for which the “MIC (ppm) to inhibit growth: Sodium Pyrithione” value is on record as 31 ppm in the test on Candida albicans (setting [13]), 16 ppm in the test on Candida albicans (setting [14]), 63 ppm in the test on Pseudomonas aeruginosa (setting [13]) and 63 ppm in the test on Pseudomonas aeruginosa (setting [14]).
As for `CC(O)C(=O)O` (stereo not shown) [Lactic Acid, lactic acid, reference compound], the MIC with Candida albicans (setting [15]) is 10000 µg/mL; with Pseudomonas aeruginosa (Pseudomonas aeruginosa, Lactic Acid alone, or its concentration in the mixture with butyl levulinate, read-out: MIC (ppm) to inhibit growth: Lactic Acid), 625 µg/mL; in the test on Staphylococcus aureus (setting [15]) it was 156 µg/mL.
As to `C/C=C/C=C/C(=O)[O-].[K+]` [Potassium Sorbate, potassium sorbate, reference compound], the values for the minimum inhibitory concentration (MIC) in the test with Candida albicans (setting [16]) and with Staphylococcus aureus (setting [16]) were 2500 µg/mL and 156 µg/mL, respectively. Moreover, the “MIC (ppm) to inhibit growth: Potassium Sorbate” value in the test on Candida albicans (Potassium Sorbate alone, or its concentration in the mixture with butyl levulinate) is on record as 2500 ppm. The Log reduction in test [1] (setting [17]) came out at 0.58; in test [1] (setting [18]) it was 0.67; in test [1] (setting [19]) it was 0.45; in test [1] (setting [20]), 0.64; in test [1] (setting [21]) it was 0.52; in the test with C. albicans (Potassium Sorbate 5000 ppm), 1.01. Also, the Log reduction with C. albicans (Potassium Sorbate 10000 ppm) was 0.72; in the test on C. albicans (Potassium Sorbate 15000 ppm), 0.72; in the test with C. albicans (Potassium Sorbate 20000 ppm) it was 0.92; with C. albicans (Potassium Sorbate 25000 ppm) it was 0.83; in test [2] (setting [17]) it was under 0.03; in test [2] (setting [18]), under 0.03. The Log reduction is under 0.03 in test [2] (setting [19]); over 4.55 in test [2] (setting [20]); over 4.55 in test [2] (setting [21]); under 0.33 in test [2] (pH 8, Potassium Sorbate 5000 ppm); under 0.33 in test [2] (pH 8, Potassium Sorbate 10000 ppm); under 0.33 in test [2] (pH 8, Potassium Sorbate 15000 ppm). Besides, the Log reduction in test [2] (pH 8, Potassium Sorbate 20000 ppm) is under 0.33; in test [2] (pH 8, Potassium Sorbate 25000 ppm), under 0.33.
Regarding “poly(hexamethylene) biguanide [PHMB, reference compound]”, in the test with Candida albicans (PHMB alone, or its concentration in the mixture with butyl levulinate), the “MIC (ppm) to inhibit growth: PHMB” value came out at 313 ppm.
With “alkyldimethylbenzylammonium chloride [ADBAC]”, the “MIC (ppm) to inhibit growth: ADBAC” value in the test on Candida albicans (setting [22]) was 8 ppm; in the test with Pseudomonas aeruginosa (setting [22]), 16 ppm.
